Experimental data taken from US20070129439A1, “COMPOSITIONS CONTAINING SUBSTITUTED QUINOLINES AND SUBSTITUTED DIPHENYL SULFONES AND METHODS OF USE” (priority 2003, published 2007).

Test system: neurons
Test: % neuron loss for test agents in a rat model with Alzheimer's disease (FIG. 1)
Format: in vivo
Conditions: rat model with AD
Excerpt: FIG. 1 is a plot of % neuron loss for several test agents in a rat model with Alzheimer's disease (AD).

Compound | % neuron loss (killing effect) (dapsone alone at 2 mg/kg) | % neuron loss (killing effect) (hydroxychloroquine alone at 6.5 mg/kg)
Nc1ccc(S(=O)(=O)c2ccc(N)cc2)cc1 [dapsone, 4,4′-diaminodiphenylsulfone] | suppression of the in vitro killing effect | –
CCN(CCO)CCCC(C)Nc1ccnc2cc(Cl)ccc12 (centres unmarked) [hydroxychloroquine] | – | suppression of the in vitro killing effect
